The values below come from a melting point compilation (Tetko et al.; mined from patent text by program, amines drawn as free bases though some values may be those of a salt).

Each structure is given as a SMILES string. A value given as a limit tells only on which side of the number the result lay.

The melting point is the temperature, or range, at which the solid turns liquid. Compound `CCCCN1CCC(CNC(=O)c2cc(Cl)c(N)n3cc(C)nc23)CC1` registered a melting point of 188 to 191 °C.

As for `N#CCC(=O)N(N)c1c(Cl)cc(Cl)cc1Cl`, the melting point fell in the range of 166 to 168 °C.

In the case of `CN(Cc1cc2c(=O)c(C(=O)NCc3ccc(Cl)cc3)cn(C)c2o1)CC(O)c1ccoc1` (configuration not stated), the melting point lay within 93 to 97 °C.

In turn, `COc1ccc(C2C(C(=O)c3ccc(C)cc3)=C(O)C(=O)N2c2ccc(C)nn2)cc1` (configuration not stated) showed a melting point of 266 °C.

On to `COc1cc(OC)nc(NC(=O)NS(=O)(=O)c2ccccc2C(O)c2cccs2)n1` (configuration not stated), for which the melting point lay within 152 to 154 °C.

`CC(C)N(C(C)C)C(C)CN1C(=O)/C(=N/NC(N)=O)c2ccccc21` (configuration not stated) gave a melting point of 201 to 204 °C.

With `O=C(NCCn1ccnc1)c1cc(N2CC2)c([N+](=O)[O-])cc1[N+](=O)[O-]`, the melting point is more than 250 °C.

Take `CN1CC=C(C2c3ccccc3CCc3ccccc32)CC1`: the melting point lay in the range of 96 to 98 °C.

Consider `O=C1Nc2ccc([N+](=O)[O-])cc2C1(Br)Br`, for which the melting point was 205 °C.

For `COC(=O)c1cccc(NC(=O)C=Cc2ccc(OC)c(OC)c2)c1N`, the melting point is 144 to 146 °C.

The compound `CCc1cnc2c(NC(=O)c3c(Cl)cccc3Cl)cccc2c1CCC(=O)O` had a melting point of 236 to 237 °C.

Consider `Oc1ccccc1-c1cc(-c2ccc3c(c2)OCO3)cc(-c2ccsc2)n1`, for which the melting point lay in the range of 120 to 121 °C.

`N#Cc1cc(NC(=O)C2CCc3ccccc3C2)ccc1N1CCC(O)CC1` (configuration not stated): the melting point lay within 163 to 165 °C.

For the compound `COc1ccc(S(=O)CC(C)=O)cc1` (single isomer, unassigned; (-)), the melting point was in the range of 56 to 58 °C.

`CC(C)OC(=O)NCNCN=O` registered a melting point of 66 to 67 °C.

In turn, `Cc1ccc(-c2ccc3c(c2)C=C(C(=O)Nc2ccc(CSCc4ccccc4)cc2)CCO3)cc1` displayed a melting point of 145 to 146 °C.

As for `Cc1ccc(-c2c(NS(=O)(=O)c3ccc(C(C)(C)C)cc3)ncnc2OCCOc2ccc(C(C)O)cc2)cc1` (configuration not stated), the melting point is 176 to 178 °C.

`CC(C)(C)c1ncc2cc(Cl)nc(Cl)n12` had a melting point of 109 to 110 °C.

In turn, `O=C(O)C1(COc2ccc(Br)cc2)COC1` returned a melting point of 122 to 124 °C.

With `Cc1c(C)c2c(c(C)c1N)CC(C)(CN1CCN(C(=O)c3ccc([N+](=O)[O-])cc3)CC1)O2` (configuration not stated), the melting point fell in the range of 154 to 158 °C.

For the compound `O=C(O)c1cc(OCC(=O)c2ccccc2)cc(C(F)(F)F)c1`, the melting point fell in the range of 180 to 182 °C.

Compound `CC(C)S(=O)(=O)c1cnc2c(c1)nc(CC(C)(C)C)n2CC1CCOCC1` had a melting point of 201 °C.

Compound `CN1CCC(N(C2CC2)S(=O)(=O)c2ccc(Nc3nccc(Nc4ccc(F)cc4)n3)cc2)CC1` gave a melting point of 218 °C.

Take `N#Cc1c(N2CCN(C(=O)c3cnccn3)CC2)c2ccccc2n(Cc2ccc(F)cc2)c1=O`: the melting point lay in the range of 145 to 156 °C.

Compound `NC(=O)c1cccc(OCc2ccccc2)c1` showed a melting point of 136 to 140 °C.

As to `CN(c1cccc2cc(-c3nccs3)[nH]c12)S(=O)(=O)c1ccsc1C(C)(C)O`, the melting point was determined as 153 °C.

`O=C(O)c1cnc(S)n1C(c1ccccc1)c1ccccc1`: the melting point was 158 °C.

`Nc1nc(C(F)(F)F)cc(C(F)(F)F)n1` displayed a melting point of 94.5 to 96 °C.

With `CCOC(=O)CCc1nnc(-c2ccc3c(c2)CCO3)o1`, the melting point is 81 to 82 °C.

On to `CCOC(=O)c1c(Cn2cncn2)nc2cc(OC)c(OC)cc2c1-c1ccc(OC)cc1`, for which the melting point was in the range of 150 to 151 °C.

In turn, `COc1cccc(NC(=O)NC2C(=O)N(CC34CC5CC(CC(C5)C3)C4)c3ccccc3N(c3ccccc3)C2=O)c1` (configuration not stated) had a melting point of 267 to 268 °C.

For `COc1ccccc1P(CCCP(c1ccccc1OC)c1ccccc1OC)c1ccccc1OC`, the melting point fell in the range of 149 to 150 °C.

`CC(C)C(O)C(O)C(O)C(CC1CCCCC1)NC(=O)OC(C)(C)C` (configuration not stated) showed a melting point of 151 to 152 °C.

Compound `CC(=O)OC1C=C(C)C(=O)CC(C)(C)C1OC(=O)c1ccccc1` (configuration not stated) had a melting point of 86 to 87 °C.

`COC(=O)c1c(Cc2ccc(C(=O)NCCO)cc2)c(=O)c2ccc(Cl)cc2n1-c1ccccc1` returned a melting point of 162 to 164 °C.

The compound `Cc1ccc(C2=CCC(C)(C)c3cc(C(=O)c4ccc5cc(C(=O)O)ccc5c4)ccc32)cc1` came in with a melting point of 267 °C.

As to `O=Cc1ccc(C(=O)Nc2nccs2)cc1`, the melting point came out at 189 °C.

`CC(=O)c1cc(-c2ccccc2)c(=O)n2c1-c1sccc1CC2` came in with a melting point of 149 to 150 °C.

Consider `Oc1ccc(-c2nsc3ccccc23)c(Cl)c1Cl`, for which the melting point fell in the range of 224 to 226 °C.

Regarding `CN1CCc2ccccc2C1=NNC(=O)Nc1ccc(C(F)(F)F)cc1`, the melting point was in the range of 101 to 104 °C.

Regarding `Cc1cc(C#CC2CC2)cc(C)c1Oc1ccc(N)c(Nc2ccc(C#N)cc2)n1`, the melting point is 82 to 85 °C.

In turn, `O=C(O)c1cn(CCO)nc1[N+](=O)[O-]` had a melting point of 147 to 149 °C.

`COC(=O)CS(=O)(=O)Cc1cnc(OC)c([N+](=O)[O-])c1` showed a melting point of 137 to 140 °C.

Take `CCCCCCCCCCCCOC(=O)c1ccc2cc(O)ccc2c1`: the melting point lay within 103 to 104 °C.

In turn, `Nc1ncnc2[nH]cc(-c3ccccc3)c12` came in with a melting point of 238 to 239 °C.

In the case of `CCOC(=O)Cc1cn(Cc2ccccc2)nc1OCc1ccc(OCc2nc(-c3ccccc3)oc2C)c(OC)c1`, the melting point was 86 to 87 °C.

The compound `OC1(CCc2ccccc2)CCC2(CC1)OCCO2` gave a melting point of 109 to 110 °C.

Turning to `CC(=O)Nc1ccc(OC(F)(F)F)cc1Br`, the melting point is 123 °C.

On to `O=C(Nc1ccc(Oc2ccc(N(CC(=O)N3CCN(Cc4ccc5c(c4)OCO5)CC3)C(=O)C(F)(F)F)cc2)nc1)c1ccc(Cl)c(Cl)c1`, for which the melting point was 211 to 213 °C.

Take `COc1cc(OC)c2c(=O)[nH]c(-c3cc(C)c(OCCN4C(=O)NC(c5ccccc5)C4=O)c(C)c3)nc2c1` (configuration not stated): the melting point was 220 to 221 °C.

For the compound `COc1ccc(/C=N/Nc2ccccn2)cc1OC1CCCC1`, the melting point lay in the range of 142 to 143 °C.

For the compound `COc1c(C#N)cc([N+](=O)[O-])cc1C#N`, the melting point is 144 to 148 °C.

Take `O=S(=O)(NCC(O)(Cn1cncn1)c1ccc(Cl)cc1Cl)c1ccc(C(F)(F)F)cc1` (configuration not stated): the melting point is 165 to 166 °C.

As to `COc1ccc(-c2nc(C(F)F)oc2-c2ccc(OCCO)cc2)cc1`, the melting point is 114 to 116 °C.

`CC(C)(CO)NC(=O)c1nn(-c2ccc(Cl)cc2F)c2c1C1CCC2C1` (configuration not stated) had a melting point of 158 to 160 °C.

With `N#CC1(CC(=O)O)CCCCC1`, the melting point is 102 °C.

`O=C(c1c[nH]c2ncc(Br)nc12)C12CC3CC(CC(C3)C1)C2` had a melting point of 279 to 280 °C.

Compound `COc1ccccc1CNc1ccc2c(-c3noc(C)n3)cccc2n1` had a melting point of 122 °C.

For the compound `Cc1ccc(C(=C2CN(C(c3ccccc3)c3ccccc3)C2)S(C)(=O)=O)cc1`, the melting point worked out at 210 °C.

In the case of `COC(=O)c1ccccc1NC(=O)NCc1ccccc1`, the melting point lay in the range of 140 to 141 °C.

Turning to `CNc1nc(Br)cc(Sc2ccc([N+](=O)[O-])cc2)n1`, the melting point was 204 to 205 °C.

The compound `COc1ccccc1N1CCN(CCCNC(=O)c2cccc3c(=O)c(C)c(CCc4ccccc4)oc23)CC1` gave a melting point of 142 to 146 °C.

Compound `Cc1sc(Br)c(C)c1C(=O)O` displayed a melting point of 183 to 184 °C.

`CCCCNc1ncn(-c2c(CC)cccc2CC)c(=O)n1` came in with a melting point of 178 to 179 °C.

For the compound `CCCCc1nc(=O)c2cc(C(C)(C)O)ccc2[nH]1`, the melting point lay within 190 to 192 °C.

For `FC(F)(F)Oc1ccc2nc(-c3ccc(Cl)cc3)[nH]c2c1`, the melting point lay within 190 to 192 °C.

As to `NS(=O)(=O)c1cc(C(=O)CCCC(=O)O)cc2c1OCC2`, the melting point lay in the range of 207 to 209 °C.

`Cn1ncnc1COc1cc(N)c2cnn(-c3ccccc3)c2n1`: the melting point lay within 164 to 166 °C.

`Cc1ccc(C(=O)/C=C/C(=O)O)o1`: the melting point is 159 to 162 °C.

The compound `CCc1nc(C)c(CC(=O)O)c(=O)n1Cc1ccc(-c2ccccc2-c2nnn[nH]2)cc1` came in with a melting point of 325 to 329 °C.

Turning to `C=CCOC(=O)c1ccc(N=C(OC)c2ccc(OC)c(C34CC5CC(CC(C5)C3)C4)c2)cc1`, the melting point is 85 to 87 °C.

As for `CCCCCCCCCCc1ccc2c(c1)-n1c(C)nnc1C(C)N=C2c1ccccc1` (configuration not stated), the melting point was 111 to 112 °C.

Turning to `C[C@H]1C[C@H](OC(=O)C(C)(C)Oc2ccc(-c3ccccc3)cc2)CC(C)(C)C1` (relative stereo), the melting point stood at 96 °C.

Regarding `CC(=C1SC(=S)NC1=O)c1ccccc1C(=O)O`, the melting point lay within 193 to 195 °C.

In turn, `COc1c(Br)cc2c3c(cccc13)C(=O)N(O)C2=O` displayed a melting point of 223 to 227 °C.

As to `NC(=S)NC[C@H]1CN(c2ccc(-n3cncn3)cc2)C(=O)O1`, the melting point lay within 214 to 215 °C.

With `CCc1cc(C)cc(CC)c1CO`, the melting point was 71 to 72 °C.

In turn, `COC(=O)CCCCC(O)c1ccc(CCc2ccccc2)cc1` (configuration not stated) had a melting point of 56 to 58 °C.

As for `CCCCc1oc2ccccc2c1C(=O)Nc1ccc(-c2ccc(OCC(=O)O)cc2)cc1`, the melting point lay within 225 to 227 °C.

Compound `CCc1nc(N)nc(N)c1-c1ccc(NCCc2ccccc2)c([N+](=O)[O-])c1` yielded a melting point of 222 to 225 °C.

`Cc1ccc(Nc2nc(=O)c3cccnc3s2)cc1`: the melting point fell in the range of 208 to 209 °C.

`COCCOc1cc(NC(=O)OC(C)(C)C)c([N+](=O)[O-])cc1I` showed a melting point of 109 to 111 °C.

`NC1=NC(c2ccccc2)(c2cccc(Cc3ccc(F)cc3)c2)C2=NCCCN12` (configuration not stated) registered a melting point of 152 °C.

Compound `CC(C)Oc1cc(/C=C/C(=O)O)n(Cc2ccc(C(F)(F)F)cc2Cl)n1` gave a melting point of 170 to 171 °C.

Compound `CC1OC(n2c(Cl)c(C#N)c3cc(Cl)c(Cl)cc32)C(O)C1O` (configuration not stated) displayed a melting point of 227 to 228 °C.

As to `Cc1cccc2c(=O)nc(-c3cccc(C(=O)OC(C)(C)C)n3)sc12`, the melting point fell in the range of 204 to 205 °C.

As to `CC(C)(C)c1cc(C(C)(C)C)n(Cc2ccc(CO)cc2)n1`, the melting point lay in the range of 121 to 122 °C.
